Source: BindingDB's records for doi:10.1021/jm000455z (Kissei Pharmaceutical, 2001)

Experiment: Agonistic activity towards beta-3 adrenoceptor. Mean concentration required to produce 50% relaxation of detrusor before the addition in the ferret detrusor

EC50 [nM]	SMILES
5.62	C[C@H](NCCc1ccc(NC(C)(C)C(=O)O)cc1Cl)[C@H](O)c1ccc(O)cc1
158	C[C@H](NCCc1cc(Cl)c(N(C)CC(=O)O)c(Cl)c1)[C@H](O)c1ccc(O)cc1
457	C[C@H](NCCc1ccc(NCC(=O)O)c(Cl)c1Cl)[C@H](O)c1ccc(O)cc1
24	C[C@H](NCCc1ccc(NCC(=O)O)cc1)[C@H](O)c1ccc(O)cc1
81.3	C[C@H](NCCc1cc(Br)c(NCC(=O)O)c(Br)c1)[C@H](O)c1ccc(O)cc1
52.5	C[C@H](NCCc1ccc(N(C)CC(=O)O)cc1)[C@H](O)c1ccc(O)cc1
575	C[C@H](NCCc1ccc(NCC(=O)O)c(Br)c1)[C@H](O)c1ccc(O)cc1
813	C[C@H](NCCc1ccc(NCC(=O)O)c(I)c1)[C@H](O)c1ccc(O)cc1
11	C[C@H](NCCc1ccc(N(C)CC(=O)O)c(Cl)c1)[C@H](O)c1ccc(O)cc1
0.933	C[C@H](NCCc1ccc(NCC(=O)O)c(Cl)c1)[C@H](O)c1ccc(O)cc1
61.7	C[C@H](NCCc1cc(Cl)c(NCC(=O)O)cc1Cl)[C@H](O)c1ccc(O)cc1
7.24	C[C@H](NCCc1ccc(NCC(=O)O)cc1Cl)[C@H](O)c1ccc(O)cc1
